Experimental data: patent US8637252B2, “Methods and compositions for determining altered susceptibility of HIV-1 to anti-HIV drugs” (Monogram Biosciences, Inc., priority 2011, dated 2014)
“And” between values parts separate entries of the source, which are not always exact repeats. Equal values may be shown once.

What was measured:
[1] = tested on: HIV-1 (patient-derived RHIN segment); test: phenotypic drug resistance test, resistance test vectors with patient-derived RHIN segment, luciferase, 293 cells; type: cell-based
Description: (§1) Patient-derived segment(s) corresponding to the entire pol gene, encoding HIV protease, reverse transcriptase (including RNAse H), and integrase (hereinafter “POL”), the portion of pol encoding amino acids 1-305 of reverse transcriptase (hereinafter “PR-RT”), the portion of pol encoding amino acids 319-440 of reverse transcriptase (including RNAse H), and integrase (hereinafter “RHIN”), were amplified by the reverse transcription-polymerase chain reaction method (RT-PCR) using viral RNA isolated from viral particles present in the plasma or serum of HIV-infected individuals as described below. The portion of pol encoding protease, amino acids 1-531 of reverse transcriptase (including RNase H) (hereinafter “PRRT-RH”), or the portion of pol encoding protease, reverse transcriptase (including RNAse H) and integrase (hereinafter “PRRT-RHIN”), were assembled from amplicons described above by standard recombinant DNA techniques involving a KpnI restriction site at amino acid 400 or a Pin A1 site at amino acid 315.
(§2) Virus was pelleted by centrifugation at 20,400×g for 60 min from plasma (typically, 1 ml) prepared from blood samples collected in evacuated tubes containing either EDTA, acid-citrate dextrose, or heparin as an anticoagulant. Virus particles were disrupted by resuspending the pellets in 200 [1.1 of lysis buffer (4 M guanidine thiocyanate, 0.1 M Tris HCl (pH 8.0), 0.5% sodium lauryl sarcosine, 1% dithiothreitol). RNA was extracted from viral lysates by using oligo(dT) linked to magnetic beads (Dynal, Oslo, Norway). Reverse transcription was performed with Superscript III (Invitrogen) at 50 degrees for 1 hour using primer 1.
(§3) From the resultant cDNA either POL or RHIN sequences were amplified using the Advantage High Fidelity PCR kit (BD Biosciences; Clontech). POL amplification products are made using forward Primer 3 containing an Apal site and reverse Primer 4 containing a Xho 1 site. RHIN amplification products are made using forward Primer 2 containing a P1NA1 site and reverse Primer 4 containing a Xho 1 site.
(§4) A retroviral vector designed to measure antiretroviral drug susceptibility was constructed by using an infectious molecular clone of HIV-1. The vector, referred to herein as an indicator gene viral vector (IGVV), is replication defective and contains a luciferase expression cassette inserted within a deleted region of the envelope (env) gene. The IGVV is described in U.S. Pat. No. 5,837,464 (International Publication Number WO 97/27319) which is hereby incorporated by reference in its entirety. This retroviral vector was further modified to allow insertion of either the entire pol gene (POL) or the portion of poi encoding amino acids 319-440 of reverse transcriptase, the RNase H portion of reverse transcriptase, and integrase (REIN) by engineering an Xho l restriction enzyme recognition site into vif. Prior to doing this, an Xho 1 site in nef was deleted. Resistance Test vectors (RTVs) were constructed by incorporating amplified POL or RHIN into the IGVV by using Apal and Xhol or PinAI and Xho 1 restriction sites respectively. RTVs were prepared as libraries (pools) in order to capture and preserve the pol or RHIN sequence heterogeneity of the virus in the patient. POL amplification products were digested with Apal and Xhol, purified by agarose gel electrophoresis, and ligated to ApaI- and Xhol-digested IGVV DNA. RHIN amplification products were digested with PinAI and Xho/, purified by agarose gel electrophoresis, and ligated to PinAI and Xhol-digested IGVV DNA. Ligation reactions were used to transform competent Escherichia coli (Invitrogen, Carlsbad, Calif.). An aliquot of each transformation was plated onto agar, and colony counts were used to estimate the number of patient-derived segments represented in each RTV library. RTV libraries that comprised less than 50 members are not considered representative of the patient virus. […]

[2] = tested on: HIV-1 (patient-derived POL segment); test: phenotypic drug resistance test, resistance test vectors with patient-derived POL segment (entire pol gene), luciferase, 293 cells; type: cell-based
Description: as §1, §2, §3, §4

[3] = Sample 47 (K103K/N, V106V/A, Y181Y/C, G190G/A)
[4] = Sample 58 (K103N, Y181Y/C, G190G/A)
[5] = Sample 62 (K103H, P225P/H, T369T/I)
[6] = Sample 90 (K103K/N, Y181C, G190A)

O=C1Nc2ccc(Cl)cc2[C@@](C#CC2CC2)(C(F)(F)F)O1 [EFV, efavirenz]
fold change in IC50, RHIN ([1]; Sample 31 (K103N)): 1.1 fold
fold change in IC50, RHIN ([1]; Sample 33 (K103S)): 0.7 fold
fold change in IC50, RHIN ([1]; Sample 34): 1.0 fold
fold change in IC50, RHIN ([1]; Sample 35 (K103H)): 0.7 fold
fold change in IC50, RHIN ([1]; Sample 36 (K103K/W)): 1.0 fold
fold change in IC50, RHIN ([1]; Sample 38 (K103N)): 0.5 fold
fold change in IC50, RHIN ([1]; Sample 39 (T369A)): 0.9 fold
fold change in IC50, RHIN ([1]; Sample 42 (G190G/A)): 0.4 fold
fold change in IC50, RHIN ([1]; Sample 45): 1.0 fold
fold change in IC50, RHIN [1, 3]: 0.5 fold
fold change in IC50, RHIN ([1]; Sample 50 (K103N)): 0.5 fold
fold change in IC50, RHIN ([1]; Sample 51): 0.4 fold
fold change in IC50, RHIN ([1]; Sample 52): 1.0 fold
fold change in IC50, RHIN [1, 4]: 0.9 fold
fold change in IC50, RHIN [1, 5]: 1.8 fold and 1.83 fold
fold change in IC50, RHIN ([1]; Sample 64 (T369T/A)): 0.3 fold
fold change in IC50, RHIN ([1]; Sample 69): 0.8 fold
fold change in IC50, RHIN ([1]; Sample 72): 1.0 fold
fold change in IC50, RHIN ([1]; Sample 80 (K103K/N, Y181Y/C)): 0.52 fold
fold change in IC50, RHIN ([1]; Sample 81 (K103N, P225H)): 1.2 fold
fold change in IC50, RHIN ([1]; Sample 84): 0.5 fold
fold change in IC50, RHIN ([1]; Sample 85): 1.2 fold
fold change in IC50, RHIN ([1]; Sample 87): 1.3 fold
fold change in IC50, RHIN ([1]; Sample 89 (L1001, K103N)): 1.2 fold
fold change in IC50, RHIN [1, 6]: 0.7 fold
fold change in IC50, RHIN ([1]; Sample 92): 0.3 fold
fold change in IC50, RHIN ([1]; Sample 93): 0.9 fold
fold change in IC50, pol ([2]; Sample 31 (K103N)): 56.0 fold
pol/PR-RT ratio ([2]; Sample 31 (K103N)): 2.5
fold change in IC50, pol ([2]; Sample 33 (K103S)): 5.9 fold
pol/PR-RT ratio ([2]; Sample 33 (K103S)): 0.8
fold change in IC50, pol ([2]; Sample 34): 0.6 fold
pol/PR-RT ratio ([2]; Sample 34): 1.4
fold change in IC50, pol ([2]; Sample 35 (K103H)): 9.5 fold
pol/PR-RT ratio ([2]; Sample 35 (K103H)): 1.0
fold change in IC50, pol ([2]; Sample 36 (K103K/W)): 2.2 fold
pol/PR-RT ratio ([2]; Sample 36 (K103K/W)): 0.3
fold change in IC50, pol ([2]; Sample 38 (K103N)): 27.0 fold
pol/PR-RT ratio ([2]; Sample 38 (K103N)): 0.6
fold change in IC50, pol ([2]; Sample 39 (T369A)): 1.0 fold
pol/PR-RT ratio ([2]; Sample 39 (T369A)): 4.0
fold change in IC50, pol ([2]; Sample 42 (G190G/A)): 1.1 fold
pol/PR-RT ratio ([2]; Sample 42 (G190G/A)): 0.3
fold change in IC50, pol ([2]; Sample 45): 0.2 fold
pol/PR-RT ratio ([2]; Sample 45): 1.0
fold change in IC50, pol [2, 3]: 30.2 fold
pol/PR-RT ratio [2, 3]: 0.2
fold change in IC50, pol ([2]; Sample 50 (K103N)): 24.1 fold
pol/PR-RT ratio ([2]; Sample 50 (K103N)): 0.4
fold change in IC50, pol ([2]; Sample 51): 0.5 fold
pol/PR-RT ratio ([2]; Sample 51): 1.1
fold change in IC50, pol ([2]; Sample 52): 1.1 fold
pol/PR-RT ratio ([2]; Sample 52): 0.8
fold change in IC50, pol [2, 4]: 153.9 fold
pol/PR-RT ratio [2, 4]: 5.8
fold change in IC50, pol [2, 5]: 202 fold and 202.0 fold and 202.00 fold
pol/PR-RT ratio [2, 5]: 10.1
fold change in IC50, pol ([2]; Sample 64 (T369T/A)): 0.3 fold
pol/PR-RT ratio ([2]; Sample 64 (T369T/A)): 0.3
fold change in IC50, pol ([2]; Sample 69): 1.2 fold
pol/PR-RT ratio ([2]; Sample 69): 1.6
fold change in IC50, pol ([2]; Sample 72): 0.8 fold
pol/PR-RT ratio ([2]; Sample 72): 1.5
fold change in IC50, pol ([2]; Sample 80 (K103K/N, Y181Y/C)): 6.3 fold
pol/PR-RT ratio ([2]; Sample 80 (K103K/N, Y181Y/C)): 0.6
fold change in IC50, pol ([2]; Sample 81 (K103N, P225H)): 136.0 fold
pol/PR-RT ratio ([2]; Sample 81 (K103N, P225H)): 1.4
fold change in IC50, pol ([2]; Sample 84): 0.7 fold
pol/PR-RT ratio ([2]; Sample 84): 1.0
fold change in IC50, pol ([2]; Sample 85): 77.0 fold
pol/PR-RT ratio ([2]; Sample 85): 3.5
fold change in IC50, pol ([2]; Sample 87): 1.0 fold
pol/PR-RT ratio ([2]; Sample 87): 1.1
fold change in IC50, pol ([2]; Sample 89 (L1001, K103N)): 700.0 fold
pol/PR-RT ratio ([2]; Sample 89 (L1001, K103N)): 1.0
fold change in IC50, pol [2, 6]: 66.0 fold
pol/PR-RT ratio [2, 6]: 1.3
fold change in IC50, pol ([2]; Sample 92): 0.8 fold
pol/PR-RT ratio ([2]; Sample 92): 0.8
fold change in IC50, pol ([2]; Sample 93): 0.7 fold
pol/PR-RT ratio ([2]; Sample 93): 0.8
